Columns and labels:
[1] = tested on: wild type rice (Oryza sativa L. japonica. cv. Nipponbare) plants; experiment: Glyphosate resistance verification in N6 culture medium, wild type rice plants; type: in vivo; details: N6 culture medium containing 1 mg/L glyphosate, recorded after 10 days
Procedure: (§1) The three TIPS EPSPS site mutation lines (T0-1, T0-5 and T0-7) obtained from Example 4 and wild type rice (Oryza sativa L. japonica. cv. Nipponbare) plants were placed into an N6 culture medium containing 1 mg/L glyphosate, and cultured under the routine culture conditions. The resistance results were recorded after 10 days. Verification was carried out in more than 3 plants for each TIPS EPSPS site mutation line.

[2] = tested on: TIPS EPSPS site mutation lines (T0-1, T0-5 and T0-7); experiment: Glyphosate resistance verification in N6 culture medium, TIPS EPSPS site mutation lines; type: in vivo, Oryza sativa L. japonica. cv. Nipponbare; details: N6 culture medium containing 1 mg/L glyphosate, recorded after 10 days, TIPS EPSPS mutant rice T0-1, T0-5, T0-7
Procedure: as §1

Q: How did the “resistance results (plant condition)” value [1] turn out when `O=C(O)CNCP(=O)(O)O` [glyphosate] was run?
A: Its value is “chlorotic and wilting to die”.

Q: What about the “resistance results (plant condition)” value [2] of the same molecule?
A: Its value is “survived normally”.
